How the values were obtained:
Hela cells = test: photo-cytotoxicity experiment (MTT, 635 nm laser); format: cell-based
Protocol: Photo-cytotoxicity experiment on cell: cultured Hela cells were digested and pipetted with 0.25% trypsin and to prepare a single-cell suspension, the number of cells was adjusted to about 2×10^4 per milliliter, and 200 uL of the suspension was seeded in a well of a 96-well culture plate, which is placed in a 37° C. incubator containing 5% CO2 for cultivation. After the cells adhere to the wall, a supernatant culture solution was discarded, and photosensitizers of different concentrations, that is, the hematoporphyrin derivative HpD, the hypocrellin B HB, or HB-1c-PEG6 synthesized in example 3, were added in a strictly lucifugous condition in accordance with experimental designs, and the culture plate was placed in the 37° C. incubator containing 5% CO2 for further cultivation and incubation for 1 hour. Then, a semiconductor laser with a wavelength of 635 nm was used for irradiation, a power density was adjusted to 20 mW/cm^2, light beams were evenly and vertically applied onto the 96-well culture plate, and an irradiation time was 1000 S. In addition, each 96-well culture plate is provided with a blank group, and 6 holes were provided for in each condition. After irradiation, the culture plate was placed in the 37° C. incubator containing 5% CO2 for further cultivation and incubation for 24 hours, and then a cellular survival rate was measured. The cellular survival rate was measured by means of the MTT method. 20 uL of MTT was added to each well, wherein the MTT is MTT prepared with PBS and having a concentration of 5 mg/ml. The culture plate was placed in the 37° C. incubator containing 5% CO2 for further cultivation for 4 hours, after which the cultivation was terminated. A supernatant in the well was extracted and discarded carefully. Then, 150 uL of dimethyl sulfoxide (DMSO) was added to each well, and the culture plate was shaken by using a micro shaker for 10 minutes to fully dissolve a purple crystal substance. A wavelength of 570 nm was selected to measure an optical density value (i.e., OD value) of each well on a microplate reader, and the cellular survival rate was calculated in accordance with the following formula: cellular survival rate=OD value of an experimental group/OD value of a blank group×100%.

[1] = water solubility in normal saline; format: physicochemical; details: per milliliter of normal saline
Protocol: Most of photosensitizer molecules disclosed in this patent contain a large number of hydrophilic groups, such as a polyethylene glycol chain, a quaternary ammonium salt, a carboxyl group, and a sulfonic acid group, etc., making the photosensitizer molecules have very high water solubility in a physiological condition; and experiments indicate that each milliliter of normal saline or glucose injection can dissolve more than 5 mg of such the photosensitizer molecules, presenting excellent water solubility. Therefore, the photosensitive drug can be well transported in blood vessels during intravenous injection, without causing a vascular blockage. HB-1c-C2-N+ prepared in example 4 contains two quaternary ammonium salts, and each milliliter of normal saline can dissolve more than 20 mg of photosensitizer molecules; HC-1c-PEG6 prepared in example 6 contains two 6-PEG chains, and each milliliter of normal saline can dissolve more than 20 mg of photosensitizer molecules; HB-8c prepared in example 19 contains two carboxyl groups, and each milliliter of normal saline can dissolve more than 10 mg of photosensitizer molecules; HB-13c prepared in example 35 contains two carboxyl groups, and each milliliter of normal saline can dissolve more than 10 mg of photosensitizer molecules; and HB-13c-PEG8 prepared in example 37 contains two 8-PEG chains, and each milliliter of normal saline can dissolve more than 20 mg of photosensitizer molecules. These photosensitizer molecules all present excellent water solubility.

[2] = absorption spectrum (maximum absorption wavelength, molar extinction coefficient); format: physicochemical
[3] = singlet oxygen efficiency test, reference rose bengal; format: physicochemical
[4] = 200 nM, 635 nm light, FIG. 14(b)
[5] = 240 nM, 635 nm red light, FIG. 16(b)

SMILES | maximum absorption wavelength [2] | molar extinction coefficient [2] | singlet oxygen yield [3] | also measured
COc1c2c3c4c(c(OC)c(=O)c5c(O)cc(OC)c(c6c(OC)cc(O)c(c1=O)c63)c54)CC(C)=C2 [HC, deacetyl hypocrellin] | – | – | – | Hela cells killed (Hela cells; 140 nM, 635 nm light, FIG. 13(b)): 40%; Hela cells killed (Hela cells; [4]): 50%; Hela cells killed (Hela cells; 240 nM, 635 nm light, FIG. 15(b)): 50%
COc1c2c3c4c(c(NCCCC(=O)O)c(=O)c5c(NCCCC(=O)O)cc(OC)c(c6c(OC)cc(O)c(c1=O)c63)c54)C=C(C)C2C(C)=O (stereo not drawn) [HB-8c] | 620 nm | 29,500 M^−1cm^−1 | 30% | amount dissolved by each milliliter of normal saline [1]: more than 10 mg
COc1c2c3c4c(c(NCCCC(=O)O)c(=O)c5c(NCCCC(=O)O)cc(OC)c(c6c(OC)cc(O)c(c1=O)c63)c54)C=C(C)C2 [HC-8c] | 618 nm | 28,500 M^−1cm^−1 | 27% | Hela cells killed (Hela cells; [4]): more than 85%
COc1c(O)c2c(=O)cc(OC)c3c4c(OC)cc(=O)c5c(O)c(OC)c6c(c(c1CC(C)=C6C(C)=O)c23)c54 [HB, hypocrellin B] | 450 nm | – | – | Hela cells killed (Hela cells; 160 nM, 635 nm laser, FIG. 12(b)): about 30%; Hela cells killed (Hela cells; 160 nM, 635 nm laser, FIG. 12(b), listed as hypocrellin B): about 20%; Hela cells killed (Hela cells; 160 nM, red light, FIG. 17(b)): 30%; Hela cells killed (Hela cells; 200 nM, red light, FIG. 18(b)): 60%; Hela cells killed (Hela cells; [5]): 30%
COc1c(O)c2c(=O)cc(OC)c3c4c(OC)cc(=O)c5c(NCCCC(=O)O)c(NCCCC(=O)O)c6c(c(c1C(C(C)=O)C(C)=C6)c23)c54 (stereo not drawn) [HB-8a] | 622 nm | 27,500 M^−1cm^−1 | 25% | amount dissolved by each milliliter of normal saline [1]: more than 5 mg
COc1c2c3c4c(c(NCC5CCC(C(=O)O)CC5)c(=O)c5c(NCC6CCC(C(=O)O)CC6)cc(OC)c(c6c(OC)cc(O)c(c1=O)c63)c54)C=C(C)C2C(C)=O (stereo not drawn) [HB-13c] | 621 nm | 29,500 M^−1cm^−1 | 30% | Hela cells killed (Hela cells; [5]): more than 85%; amount dissolved by each milliliter of normal saline [1]: more than 10 mg
COCCOCCOCCOCCOCCOCCOCCOCCOCCNC(=O)C1CCC(CNc2c3c4c5c(c(OC)c(=O)c6c(O)cc(OC)c(c7c(OC)cc(NCC8CCC(C(=O)NCCOCCOCCOCCOCCOCCOCCOCCOCCOC)CC8)c(c2=O)c74)c65)CC(C)=C3)CC1 (stereo not drawn) [HC-13c-NH-PEG8] | 630 nm | 33,500 M^−1cm^−1 | 38% | Hela cells killed (Hela cells; 200 nM, red light, FIG. 18(b)): more than 85%
COc1c(O)c2c(=O)cc(OC)c3c4c(OC)cc(=O)c5c(NCCCC(=O)NCCS(=O)(=O)O)c(NCCCC(=O)NCCS(=O)(=O)O)c6c(c(c1CC(C)=C6)c23)c54 [HC-8a-NH—C2-SO3H] | 620 nm | 31,000 M^−1cm^−1 | 32% | –
COc1c(O)c2c(=O)cc(OC)c3c4c(OC)cc(=O)c5c(NCC(=O)O)c(NCC(=O)O)c6c(c(c1CC(C)=C6)c23)c54 [HC-7a] | 620 nm | 27,500 M^−1cm^−1 | 28% | –
COc1c2c3c4c(c(NC(CS)C(=O)O)c(=O)c5c(O)cc(OC)c(c6c(OC)cc(NC(CS)C(=O)O)c(c1=O)c63)c54)C=C(C)C2C(C)=O (stereo not drawn) [HB-25d] | 630 nm | 20,500 M^−1cm^−1 | 18% | –
COCCOCCNc1c(NCCCC(=O)O)c2c3c4c(c(OC)c(O)c5c(=O)cc(OC)c(c6c(OC)cc(=O)c1c63)c54)C(C(C)=O)C(C)=C2 (stereo not drawn) [HB-47a-PEG1] | 622 nm | 30,500 M^−1cm^−1 | 30% | –
COc1c2c3c4c(c(NC(C(=O)O)C(C)C)c(=O)c5c(NC(C(=O)O)C(C)C)cc(OC)c(c6c(OC)cc(O)c(c1=O)c63)c54)C=C(C)C2C(C)=O (stereo not drawn) [HB-22c] | 620 nm | 21,500 M^−1cm^−1 | 22% | –
COCCOCCOCCOCCOCCOCCOCCOCCOCCOCCOCCOCCOCCC(=O)OCCOCCNc1c2c3c4c(c(OC)c(=O)c5c(O)cc(OC)c(c6c(OC)cc(NCCOCCOC(=O)CCOCCOCCOCCOCCOCCOCCOCCOCCOCCOCCOCCOCCOC)c(c1=O)c63)c54)CC(C)=C2 [HC-1c-PEG12] | 626 nm | 32,500 M^−1cm^−1 | 35% | –
COc1c(NC2CCCC(C(=O)O)C2)c2c(=O)cc(OC)c3c4c(OC)cc(=O)c5c(O)c(NC6CCCC(C(=O)O)C6)c6c(c(c1C(C(C)=O)C(C)=C6)c23)c54 (stereo not drawn) [HB-15b] | 623 nm | 27,000 M^−1cm^−1 | 24% | –
COc1c(O)c2c(=O)cc(OC)c3c4c(OC)cc(=O)c5c(NCC6CCC(C(=O)NCCS(=O)(=O)O)CC6)c(NCC6CCC(C(=O)NCCS(=O)(=O)O)CC6)c6c(c(c1CC(C)=C6)c23)c54 (stereo not drawn) [HC-13a-C2-SO3H] | 622 nm | 31,000 M^−1cm^−1 | 32% | –
COCCOCCOCCOCCOCCOCCOC(=O)CCCNc1c(O)c2c(=O)cc(OC)c3c4c(OC)cc(=O)c5c(NCCCC(=O)OCCOCCOCCOCCOCCOCCOC)c(OC)c6c(c(c1C=C(C)C6)c23)c54 [HC-8b-PEG6] | 624 nm | 30,000 M^−1cm^−1 | 32% | –
COc1c(NCCC2CCC(O)CC2)c2c(=O)cc(OC)c3c4c(OC)cc(=O)c5c(O)c(NCCC6CCC(O)CC6)c6c(c(c1C(C(C)=O)C(C)=C6)c23)c54 (stereo not drawn) [HB-18b] | 621 nm | 24,500 M^−1cm^−1 | 21% | –
COc1c2c3c4c(c(NCC(=O)O)c(=O)c5c(NCC(=O)O)cc(OC)c(c6c(OC)cc(O)c(c1=O)c63)c54)C=C(C)C2C(C)=O (stereo not drawn) [HB-7c] | 618 nm | 27,500 M^−1cm^−1 | 27% | –
COCCOC(=O)CCCNc1c(NCCCC(=O)OCCOC)c2c(=O)cc(OC)c3c4c(OC)cc(=O)c5c(O)c(OC)c6c(c(c1C=C(C)C6C(C)=O)c23)c54 (stereo not drawn) [HB-8a-PEG1] | 621 nm | 30,500 M^−1cm^−1 | 28% | –
CCCNc1c(NCCC)c2c(=O)cc(OC)c3c4c(OC)cc(=O)c5c(O)c(OC)c6c(c(c1C=C(C)C6C(C)=O)c23)c54 (stereo not drawn) [HB-33a] | 618 nm | 32,500 M^−1cm^−1 | 30% | –
COCCOCCOCCOCCOCCOCCOC(=O)CCCNc1c2c3c4c(c(OC)c(=O)c5c(O)cc(OC)c(c6c(OC)cc(NCCCC(=O)OCCOCCOCCOCCOCCOCCOC)c(c1=O)c63)c54)C(C(C)=O)C(C)=C2 (stereo not drawn) [HB-8c-PEG6] | 630 nm | 32,500 M^−1cm^−1 | 34% | –
COc1c2c3c4c(c(NC(CC(=O)O)C(=O)O)c(=O)c5c(NC(CC(=O)O)C(=O)O)cc(OC)c(c6c(OC)cc(O)c(c1=O)c63)c54)C=C(C)C2C(C)=O (stereo not drawn) [HB-27c] | 625 nm | 21,500 M^−1cm^−1 | 21% | –
